Read-outs that look alike come from different tables or passages of the source.
How the values were obtained:
[1] = test system: E. coli ESBL4 expressing CTX-M-15; assay: Broth microdilution MIC assay, partner ceftazidime;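 also: ceftazidime held fixed at 4 µg/mL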; format: cell-based; conditions: Escherichia coli, read-out: MIC of Exemplary Compounds in presence of fixed β-lactams, Fixed CAZ, E. coli ESBL4 CTX-M-15
[2] = test system: K. pneumoniae 156319 expressing KPC-3; assay: Broth microdilution MIC assay, partner meropenem; format: cell-based; conditions: Klebsiella pneumoniae, read-out: MIC of Exemplary Compounds in presence of fixed β-lactams, Fixed Mero, K.P. 156319 KPC-3
VIM-2 = target: T1, VIM-2 (Escherichia coli, UniProt Q5U7L7); assay: β-Lactamase enzyme inhibition assay, VIM-2 (nitrocefin substrate); format: biochemical
T1 construct: made in house; host or cells: E. coli BL21(DE3)
Protocol: For Vim-2 metallo β-lactamase, the procedure was identical with the following exceptions, first the protein was not pH adjusted to pH 5 with 50 mM sodium acetate, second, the chromatography step was changed to a 5 ml Q sepharose anion exchange column pre-equilibrated with 50 mM Hepes pH 7.5, and elution of the protein was achieved by a linear gradient of NaCl (0-600 mM). Finally, the VIM-2 purification required a second run (3rd step) on the Q sepharose anion exchange column to achieve acceptable purity (>90%).
An equal volume of diluted enzyme stock was added, and the plates were incubated at 37° C. for 15 min. Nitrocefin was used as substrate for p99 AmpC, VIM-2 and OXA-1 and dispensed into each well at a final concentration of 100 μM. Absorbance at 486 nm was immediately monitored for 10 min using a Biotek Powerwave XS2 microplate spectrophotometer using the GEN5 softweare package (Biotek Instruments, Winooski Vt.). In an analogous fashion, imipenem was used as substrate for Kpc-2 and Cefotaxime was used for SHV-5, while changes in absorbance upon hydrolysis of the β-lactam ring were monitored at 300 nm and 260 nm respectively in UV-transparent 96-well microtiter assay plates. Maximum rates of hydrolysis were compared to those in control wells (without inhibitors), and percentages of enzyme inhibition were calculated for each concentration of inhibitor. The concentration of inhibitor needed to reduce the initial rate of hydrolysis of substrate by 50% (IC50) was calculated as the residual activity of β-lactamase at 486 nm using GraFit version 7 kinetics software package (Erithacus Software, Surrey, UK).
Using the methodology described above, examples of the current invention were evaluated for their ability to inhibit β-lactamase enzymes from all four Ambler classifications (A through D). […] NT=Not tested.

[3] = test system: E. cloacae 144200 expressing Class C P99 AmpC; assay: Broth microdilution MIC assay, partner ceftazidime;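 also: ceftazidime held fixed at 4 µg/mL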; format: cell-based; conditions: Enterobacter cloacae, read-out: MIC of Exemplary Compounds in presence of fixed β-lactams, Fixed CAZ, E. cl. 144200 p99 AmpC
[4] = test system: P. aeruginosa Ps296 expressing VIM-2; assay: Broth microdilution MIC assay, partner meropenem; format: cell-based; conditions: Pseudomonas aeruginosa, read-out: MIC of Exemplary Compounds in presence of fixed β-lactams, Fixed Mero, P. aerug. Ps296 VIM-2
[5] = test system: S. aureus MSSA-7 producing penicillinase PC-1; assay: Broth microdilution MIC assay, partner piperacillin; format: cell-based; conditions: Staphylococcus aureus, read-out: MIC of Exemplary Compounds in presence of fixed β-lactams, Fixed Pip, S. aureus MSSA-7 PC-1
[6] = test system: K. pneumoniae A-1797 expressing KPC-2 and VIM-4; assay: Broth microdilution MIC assay, partner meropenem; format: cell-based; conditions: Klebsiella pneumoniae, read-out: MIC of Exemplary Compounds in presence of fixed β-lactams, Fixed Mero, K.P. A-1797 KPC-2 VIM-4
[7] = nitrocefin substrate 100 μM, 15 min preincubation at 37° C., read-out: IC50, Class B VIM-2

| SMILES | MIC [1] [µg/mL] | MIC [2] [µg/mL] | IC50 (VIM-2; [7]) [nM] | MIC [3] [µg/mL] | MIC [4] [µg/mL] | MIC ([5]; fixed piperacillin 4 μg/mL) [µg/mL] | MIC [6] [µg/mL] | MIC [5] [µg/mL] | IC50 (VIM-2) [nM] |
| --- | --- | --- | --- | --- | --- | --- | --- | --- | --- |
| O=C(O)c1cccc2c1OB(O)[C@@H](NC(=O)C1(c3ccccc3)CC1)C2 [Example 1, (R)-2-hydroxy-3-(1-phenylcyclopropanecarboxamido)-3,4-dihydro-2H-benzo[e][1,2]oxaborinine-8-carboxylic acid] | < 4 | 8 to 32 | 100 to 1000 | < 4 | 8 to 32 | – | – | – | – |
| O=C(O)c1cccc2c1OB(O)[C@@H](NC(=O)C(F)(F)c1ccccc1)C2 [Example 2, (R)-3-(2,2-difluoro-2-phenylacetamido)-2-hydroxy-3,4-dihydro-2H-benzo[e][1,2]oxaborinine-8-carboxylic acid] | < 4 | 8 to 32 | 1000 to 10000 | < 4 | 8 to 32 | < 4 | > 32 | – | – |
| O=C(O)c1cccc2c1OB(O)[C@@H](NC(=O)C1(c3ccccc3)CCNCC1)C2 [Example 3, (R)-2-hydroxy-3-(4-phenylpiperidine-4-carboxamido)-3,4-dihydro-2H-benzo[e][1,2]oxaborinine-8-carboxylic acid] | < 4 | < 4 | – | < 4 | 8 to 32 | – | > 32 | > 32 | 1000 to 10000 |
| O=C(N[C@H]1Cc2cccc(C(=O)O)c2OB1O)c1csc2c1CCNC2 [Example 4, (R)-2-hydroxy-3-(4,5,6,7-tetrahydrothieno[2,3-c]pyridine-3-carboxamido)-3,4-dihydro-2H-benzo[e][1,2]oxaborinine-8-carboxylic acid] | < 4 | < 4 | 100 to 1000 | < 4 | > 32 | < 4 | < 4 | – | – |
| O=C(N[C@H]1Cc2cccc(C(=O)O)c2OB1O)c1ccc2c(c1)CCNC2 [Example 5, (R)-3-(2-borono-2-(1,2,3,4-tetrahydroisoquinoline-6-carboxamido)ethyl)-2-hydroxybenzoic acid] | < 4 | < 4 | 100 to 1000 | < 4 | > 32 | < 4 | < 4 | – | – |
| CN1CCc2c(C(=O)N[C@H]3Cc4cccc(C(=O)O)c4OB3O)csc2C1 [Example 6, (R)-2-hydroxy-3-(6-methyl-4,5,6,7-tetrahydrothieno[2,3-c]pyridine-3-carboxamido)-3,4-dihydro-2H-benzo[e][1,2]oxaborinine-8-carboxylic acid] | < 4 | < 4 | 1000 to 10000 | < 4 | > 32 | < 4 | 8 to 32 | – | – |
| CN1CCc2cc(C(=O)N[C@H]3Cc4cccc(C(=O)O)c4OB3O)ccc2C1 [Example 7, (R)-2-hydroxy-3-(2-methyl-1,2,3,4-tetrahydroisoquinoline-6-carboxamido)-3,4-dihydro-2H-benzo[e][1,2]oxaborinine-8-carboxylic acid] | < 4 | 8 to 32 | 100 to 1000 | < 4 | > 32 | < 4 | < 4 | – | – |
| O=C(O)c1cccc2c1OB(O)[C@@H](NC(=O)c1c[nH]c3ncccc13)C2 [Example 8, (R)-2-hydroxy-3-(1H-pyrrolo[2,3-b]pyridine-3-carboxamido)-3,4-dihydro-2H-benzo[e][1,2]oxaborinine-8-carboxylic acid] | < 4 | > 32 | 1000 to 10000 | < 4 | < 4 | < 4 | > 32 | – | – |
| O=C(N[C@H]1Cc2cccc(C(=O)O)c2OB1O)c1ccc2c(c1)CNC2 [Example 9, (R)-2-hydroxy-3-(isoindoline-5-carboxamido)-3,4-dihydro-2H-benzo[e][1,2]oxaborinine-8-carboxylic acid] | < 4 | < 4 | < 100 | < 4 | < 4 | < 4 | < 4 | – | – |
| CN1Cc2ccc(C(=O)N[C@H]3Cc4cccc(C(=O)O)c4OB3O)cc2C1 [Example 10, (R)-2-hydroxy-3-(2-methylisoindoline-5-carboxamido)-3,4-dihydro-2H-benzo[e][1,2]oxaborinine-8-carboxylic acid] | < 4 | < 4 | < 100 | < 4 | 8 to 32 | < 4 | < 4 | – | – |
| NCCN1Cc2ccc(C(=O)N[C@H]3Cc4cccc(C(=O)O)c4OB3O)cc2C1 [Example 11, (R)-3-(2-(2-aminoethyl)isoindoline-5-carboxamido)-2-hydroxy-3,4-dihydro-2H-benzo[e][1,2]oxaborinine-8-carboxylic acid] | < 4 | < 4 | 100 to 1000 | < 4 | > 32 | < 4 | < 4 | – | – |
| O=C(N[C@H]1Cc2cccc(C(=O)O)c2OB1O)c1ccc2c(c1)CN(Cc1cccnc1)C2 [Example 12, (R)-2-hydroxy-3-(2-(pyridin-3-ylmethyl)isoindoline-5-carboxamido)-3,4-dihydro-2H-benzo[e][1,2]oxaborinine-8-carboxylic acid] | 8 to 32 | 8 to 32 | 100 to 1000 | < 4 | > 32 | < 4 | 8 to 32 | – | – |
| O=C(Cc1cnc2c(c1)CCCN2)N[C@H]1Cc2cccc(C(=O)O)c2OB1O [Example 13, (R)-2-hydroxy-3-(2-(5,6,7,8-tetrahydro-1,8-naphthyridin-3-yl)acetamido)-3,4-dihydro-2H-benzo[e][1,2]oxaborinine-8-carboxylic acid] | < 4 | < 4 | 1000 to 10000 | < 4 | 8 to 32 | < 4 | 8 to 32 | – | – |
| NCc1ccc(C(=O)N[C@H]2Cc3cccc(C(=O)O)c3OB2O)cc1CN [Example 14, (R)-3-(3,4-bis(aminomethyl)benzamido)-2-hydroxy-3,4-dihydro-2H-benzo[e][1,2]oxaborinine-8-carboxylic acid] | < 4 | < 4 | < 100 | < 4 | < 4 | < 4 | < 4 | – | – |
| NC1=Nc2cc(C(=O)N[C@H]3Cc4cccc(C(=O)O)c4OB3O)ccc2CN1 [Example 15, (R)-3-(2-amino-3,4-dihydroquinazoline-7-carboxamido)-2-hydroxy-3,4-dihydro-2H-benzo[e][1,2]oxaborinine-8-carboxylic acid] | < 4 | 8 to 32 | 1000 to 10000 | < 4 | < 4 | < 4 | 8 to 32 | – | – |
| N=C(N)N1Cc2ccc(C(=O)N[C@H]3Cc4cccc(C(=O)O)c4OB3O)cc2C1 [Example 16, (R)-3-(2-carbamimidoylisoindoline-5-carboxamido)-2-hydroxy-3,4-dihydro-2H-benzo[e][1,2]oxaborinine-8-carboxylic acid] | < 4 | < 4 | < 100 | < 4 | < 4 | < 4 | < 4 | – | – |
| NC1=NCc2ccc(C(=O)N[C@H]3Cc4cccc(C(=O)O)c4OB3O)cc2CN1 [Example 17, (R)-3-(3-amino-4,5-dihydro-1H-benzo[e][1,3]diazepine-7-carboxamido)-2-hydroxy-3,4-dihydro-2H-benzo[e][1,2]oxaborinine-8-carboxylic acid] | < 4 | < 4 | < 100 | < 4 | 8 to 32 | < 4 | < 4 | – | – |

— patent US9403850B2, “Beta-lactamase inhibitors” (priority 2013, dated 2016)
